Results from patent US6737383B1, “Herbicidal oxadiazolidines” (priority 1999, dated 2004).

Experiments:
[1] = test system: bedstraw; assay: Test B pre/postemergence bedstraw; type: in vivo, Galium aparine; details: Preemergence; for Plant response rating, Bedstraw: Rate 62 g/ha, scale 0 to 10 (0 no effect, 10 complete control); for Bedstraw plant response rating (0 to 10 scale): Rate 125 g/ha; for Bedstraw plant response rating: scale of 0 to 10 where 0 is no effect and 10 is complete control
Procedure, shortened: (§1)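 Test chemicals in a non-phytotoxic solvent mixture with surfactant were sprayed preemergence onto planted seeds and postemergence onto plants 2 to 18 cm tall (1- to 4-leaf stage). After twelve to sixteen days in a greenhouse, injury was visually rated against untreated controls from 0 (no effect) to 10 (complete control).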

[2] = test system: soybean; assay: Test B pre/postemergence soybean; type: in vivo, Glycine max; details: for Soybean plant response rating: scale of 0 to 10 where 0 is no effect and 10 is complete control
Procedure, shortened: as §1

[3] = test system: wild oat; assay: Test B pre/postemergence wild oat; type: in vivo, Avena fatua; details: for Wild oats plant response rating: scale of 0 to 10 where 0 is no effect and 10 is complete control
Procedure, shortened: as §1

[4] = test system: bamyardgrass; assay: Test B flood test barnyardgrass; type: in vivo, Echinochloa crus-galli; details: for Plant response rating, Barnyardgrass (0 to 10 scale, 0 is no effect, 10 is complete control) / Barnyardgrass plant response rating (0 to 10 scale, 0 is no effect, 10 is complete control): visual evaluation after twelve to sixteen days; for Barnyardgrass plant response rating (0 to 10 scale, 0 is no effect, 10 is complete control): under heading Pre-emergence
Procedure, shortened: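 Plants were grown to the 2-leaf stage before treatment with test chemical, then held in a greenhouse for twelve to sixteen days. Injury was visually rated against untreated controls on a 0–10 scale, where 0 is no effect and 10 is complete control.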

[5] = test system: winter wheat; assay: Test E winter wheat; type: in vivo, Triticum aestivum; details: Postemergence, 0 to 100 scale, 0 is no effect, 100 is complete control
Procedure, shortened: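 For postemergence, plants at the 1- to 4-leaf stage, in a 60:40 mix of sandy loam and potting mix, treated with compound formulated in a surfactant-containing non-phytotoxic solvent. Visual assessment versus untreated controls followed roughly 21–28 days in the greenhouse.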

[6] = test system: blackgrass; assay: Test E blackgrass; type: in vivo, Alopecurus myosuroides; details: Preemergence
[7] = test system: green foxtail; assay: Test E green foxtail; type: in vivo, Setaria viridis; details: Preemergence
[8] = test system: Italian ryegrass; assay: Test E Italian ryegrass; type: in vivo, Lolium multiflorum; details: Preemergence
[9] = test system: winter wheat; assay: Test E winter wheat; type: in vivo, Triticum aestivum; details: Preemergence
[10] = test system: wild oat; assay: Test E wild oat; type: in vivo, Avena fatua; details: Preemergence
[11] = test system: winter barley; assay: Test E winter barley; type: in vivo, Hordeum vulgare; details: Preemergence
[12] = Postemergence, Rate 125 g/ha, scale 0 to 10, 0 is no effect, 10 is complete control
[13] = Postemergence, Rate 250 g/ha, scale 0 to 10, 0 is no effect, 10 is complete control
[14] = Preemergence, Rate 62 g/ha, scale 0 to 10 (0 no effect, 10 complete control)
[15] = Rate 500 g/ha, Postemergence, scale 0 to 10, 0 no effect, 10 complete control
[16] = Rate 62 g/ha, flood test species, Pre-emergence
[17] = Rate 125 g/ha, flood test species
[18] = Rate 250 g/ha, Pre-emergence, flood-test species, scale 0 to 10, 0 is no effect, 10 is complete control
[19] = Rate 500 g/ha, Pre-emergence, flood test species, scale 0 to 10 (0 no effect, 10 complete control)
[20] = Rate 125 g/ha, 0 to 100 scale (0 no effect, 100 complete control)
[21] = Rate 500 g/ha, 0 to 100 scale (0 no effect, 100 complete control)

CC1CC1n1c(=O)on(C(=O)N(c2ccc(F)cc2F)C(C)C)c1=O (stereo not drawn) [Compound 372]
Plant response rating, Bedstraw [1]: 0
Bedstraw plant response rating (0 to 10 scale) [1]: 2
Bedstraw plant response rating ([1]; Rate 250 g/ha): 10
Bedstraw plant response rating ([1]; Rate 500 g/ha): 10
Plant response rating, Soybean [2, 12]: 1
Plant response rating, Soybean [2, 13]: 2
Plant response rating, Soybean [2, 14]: 0
Soybean plant response rating (0 to 10 scale) ([2]; Preemergence, Rate 125 g/ha): 0
Soybean plant response rating ([2]; Preemergence, Rate 250 g/ha): 0
Soybean plant response rating ([2]; Preemergence, Rate 500 g/ha): 2
Soybean plant response rating ([2]; Rate 62 g/ha, Postemergence): 1
Plant response rating, Soybean [2, 15]: 3
Plant response rating, Wild oats [3, 12]: 4
Plant response rating, Wild oats [3, 13]: 5
Plant response rating, Wild oats [3, 14]: 4
Wild oats plant response rating (0 to 10 scale) ([3]; Preemergence, Rate 125 g/ha): 7
Wild oats plant response rating ([3]; Preemergence, Rate 250 g/ha): 9
Wild oats plant response rating ([3]; Preemergence, Rate 500 g/ha): 10
Wild oats plant response rating ([3]; Rate 62 g/ha, Postemergence): 2
Plant response rating, Wild oats [3, 15]: 8
Plant response rating, Barnyardgrass ([4]; Postemergence (flood test), Rate 125 g/ha, scale 0 to 10, 0 is no effect, 10 is complete control): 0
Barnyardgrass plant response rating ([4]; Rate 62 g/ha, Postemergence (flood test species), scale of 0 to 10 where 0 is no effect and 10 is complete control): 0
Plant response rating, Barnyardgrass (0 to 10 scale, 0 is no effect, 10 is complete control) [4, 16]: 0
Barnyardgrass plant response rating (0 to 10 scale, 0 is no effect, 10 is complete control) [4, 17]: 0
Barnyardgrass plant response rating [4, 18]: 0
Plant response rating, Barnyardgrass ([4]; Rate 500 g/ha, listed under Postemergence (flood test species), scale 0 to 10, 0 no effect, 10 complete control): 6
Barnyardgrass plant response rating [4, 19]: 0
Plant response rating, Barnyardgrass ([4]; flood test species, listed under Postemergence, Rate 250 g/ha, scale 0 to 10, 0 is no effect, 10 is complete control): 4
Plant response rating, Wheat (winter) ([5]; Rate 125 g/ha): 65
Plant response rating, Wheat (winter) ([5]; Rate 250 g/ha): 70
Plant response rating, Wheat (winter) ([5]; Rate 500 g/ha): 80
Plant response rating, Blackgrass [6, 20]: 70
Plant response rating, Blackgrass ([6]; Rate 250 g/ha, 0 to 100 scale): 60
Plant response rating, Blackgrass [6, 21]: 100
Plant response rating, Green foxtail [7, 20]: 60
Plant response rating, Green foxtail ([7]; Rate 250 g/ha, 0 to 100 scale): 60
Plant response rating, Green foxtail [7, 21]: 100
Plant response rating, I. Ryegrass [8, 20]: 60
Plant response rating, I. Ryegrass ([8]; Rate 250 g/ha, 0 to 100 scale): 70
Plant response rating, I. Ryegrass [8, 21]: 85
Plant response rating, Wheat (winter) [9, 20]: 60
Plant response rating, Wheat (winter) ([9]; Rate 250 g/ha, 0 to 100 scale): 50
Plant response rating, Wheat (winter) [9, 21]: 70
Plant response rating, Wild oat [10, 20]: 50
Plant response rating, Wild oat ([10]; Rate 250 g/ha, 0 to 100 scale): 60
Plant response rating, Wild oat [10, 21]: 80
Plant response rating, Barley (winter) [11, 20]: 60
Plant response rating, Barley (winter) ([11]; Rate 250 g/ha, 0 to 100 scale, 0 no effect, 100 complete control): 70
Plant response rating, Barley (winter) [11, 21]: 70

CC(C)N(C(=O)n1oc(=O)n(CC2CCOC2)c1=O)c1ccc(F)cc1 (stereo not drawn) [Compound 375]
Plant response rating, Bedstraw [1]: 6
Bedstraw plant response rating (0 to 10 scale) [1]: 10
Bedstraw plant response rating ([1]; Rate 250 g/ha): 10
Bedstraw plant response rating ([1]; Rate 500 g/ha): 10
Plant response rating, Soybean [2, 12]: 1
Plant response rating, Soybean [2, 13]: 1
Plant response rating, Soybean [2, 14]: 0
Soybean plant response rating (0 to 10 scale) ([2]; Preemergence, Rate 125 g/ha): 0
Soybean plant response rating ([2]; Preemergence, Rate 250 g/ha): 0
Soybean plant response rating ([2]; Preemergence, Rate 500 g/ha): 0
Soybean plant response rating ([2]; Rate 62 g/ha, Postemergence): 1
Plant response rating, Soybean [2, 15]: 2
Plant response rating, Wild oats [3, 12]: 0
Plant response rating, Wild oats [3, 13]: 6
Plant response rating, Wild oats [3, 14]: 0
Wild oats plant response rating (0 to 10 scale) ([3]; Preemergence, Rate 125 g/ha): 4
Wild oats plant response rating ([3]; Preemergence, Rate 250 g/ha): 9
Wild oats plant response rating ([3]; Preemergence, Rate 500 g/ha): 9
Wild oats plant response rating ([3]; Rate 62 g/ha, Postemergence): 0
Plant response rating, Wild oats [3, 15]: 8
Plant response rating, Barnyardgrass (0 to 10 scale, 0 is no effect, 10 is complete control) [4, 16]: 0
Barnyardgrass plant response rating (0 to 10 scale, 0 is no effect, 10 is complete control) [4, 17]: 0
Barnyardgrass plant response rating [4, 18]: 0
Barnyardgrass plant response rating [4, 19]: 0
Plant response rating, Wheat (winter) ([5]; Rate 125 g/ha): 35
Plant response rating, Wheat (winter) ([5]; Rate 250 g/ha): 35
Plant response rating, Wheat (winter) ([5]; Rate 500 g/ha): 50
Plant response rating, Blackgrass [6, 20]: 20
Plant response rating, Blackgrass ([6]; Rate 250 g/ha, 0 to 100 scale): 60
Plant response rating, Blackgrass [6, 21]: 65
Plant response rating, Green foxtail [7, 20]: 50
Plant response rating, Green foxtail ([7]; Rate 250 g/ha, 0 to 100 scale): 60
Plant response rating, Green foxtail [7, 21]: 70
Plant response rating, I. Ryegrass [8, 20]: 50
Plant response rating, I. Ryegrass ([8]; Rate 250 g/ha, 0 to 100 scale): 70
Plant response rating, I. Ryegrass [8, 21]: 65
Plant response rating, Wheat (winter) [9, 20]: 30
Plant response rating, Wheat (winter) ([9]; Rate 250 g/ha, 0 to 100 scale): 40
Plant response rating, Wheat (winter) [9, 21]: 50
Plant response rating, Wild oat [10, 20]: 55
Plant response rating, Wild oat ([10]; Rate 250 g/ha, 0 to 100 scale): 60
Plant response rating, Wild oat [10, 21]: 70
Plant response rating, Barley (winter) [11, 20]: 35
Plant response rating, Barley (winter) [11, 21]: 30
